Like-named read-outs stand apart in the source and are kept apart here.
Tests used:
[1] = pH of aqueous solution of the crystal; type: physicochemical; conditions: aqueous solution at 50 g/L as a crystal of 3SL sodium salt 8.0-hydrate
Protocol: As for the pH, an aqueous solution at 50 g/L as a crystal of 3SL sodium salt 8.0-hydrate was measured. The melting point was measured using Melting Point M-565 (manufactured by BUCHI Corporation) under a condition of 50° C. to 200° C. and 0.5° C./min according to the instruction book.

[2] = 30° C., relative humidity of 80%; for Change in weight with lapse of time (in words): up to 8 hours
Protocol: Storage conditions: 30° C., relative humidity of 80% (apparatus: THE051FA, manufactured by Advantec Toyo Kaisha Ltd.)
Measurement method: After about 100 mg of a sample was weighed with a precision balance, the sample was packed in a glass container and stored under the above-mentioned conditions. Thereafter, the sample was weighed again, and the weight change ratio was calculated.
Incidentally, the weight of the sample at each elapsed time was measured by assuming the weight of each sample at the start of the test to be 100%.

[3] = 50° C., relative humidity of 50%, HPLC, wt %
Protocol: Storage conditions: 50° C., relative humidity of 50% (adjusted with saturated sodium bromide solution)
Measurement method: About 5 g of a sample was weighed with a precision balance, the sample was packed in a glass container, and the amount of impurities (glucose, lactose, sialic acid) after heating was evaluated by HPLC (“%” in Table 5 represents “wt %”).

CC(=O)NC1C(O)CC(OC2C(O)C(CO)OC(OC3C(CO)OC(O)C(O)C3O)C2O)(C(=O)[O-])OC1C(O)C(O)CO.O.O.O.O.O.O.O.O.[Na+] (centres unmarked) [Example 2, 3SL sodium salt 8.0-hydrate]
pH [1]: 6.00
Change in weight with lapse of time (in words) [2]: almost no change in weight
Weight of sample (weight at start of test = 100%) ([2]; elapsed time 0 hours): 100.0%
Weight of sample (weight at start of test = 100%) ([2]; elapsed time 0.5 hours): 100.2%
Weight of sample (weight at start of test = 100%) ([2]; elapsed time 2.5 hours): 99.9%
Weight of sample (weight at start of test = 100%) ([2]; elapsed time 8 hours): 99.9%
Glucose (impurity amount) ([3]; elapsed days 0): 0.03%
Lactose (impurity amount) ([3]; elapsed days 0): 0.01%
Sialic acid (impurity amount) ([3]; elapsed days 0): 0.08%
Glucose (impurity amount) ([3]; elapsed days 2): 0.04%
Lactose (impurity amount) ([3]; elapsed days 2): 0.01%
Sialic acid (impurity amount) ([3]; elapsed days 2): 0.10%
Glucose (impurity amount) ([3]; elapsed days 4): 0.04%
Lactose (impurity amount) ([3]; elapsed days 4): 0.02%
Sialic acid (impurity amount) ([3]; elapsed days 4): 0.09%

CC(=O)N[C@H]1[C@H]([C@H](O)[C@H](O)CO)O[C@@](O[C@H]2[C@@H](O)[C@@H](CO)O[C@@H](O[C@H]3[C@H](O)[C@@H](O)C(O)O[C@@H]3CO)[C@@H]2O)(C(=O)[O-])C[C@@H]1O.[Na+] (some centres unmarked) [Freeze-dried product, amorphous 3SL sodium, reference compound]
Glucose (impurity amount) ([3]; elapsed days 0): 0.11%
Lactose (impurity amount) ([3]; elapsed days 0): 0.02%
Sialic acid (impurity amount) ([3]; elapsed days 0): 0.14%
Glucose (impurity amount) ([3]; elapsed days 2): 0.14%
Lactose (impurity amount) ([3]; elapsed days 2): 0.03%
Sialic acid (impurity amount) ([3]; elapsed days 2): 0.21%
Glucose (impurity amount) ([3]; elapsed days 4): 0.16%
Lactose (impurity amount) ([3]; elapsed days 4): 0.07%
Sialic acid (impurity amount) ([3]; elapsed days 4): 0.26%

CC(=O)N[C@H]1[C@H]([C@H](O)[C@H](O)CO)O[C@@](O[C@H]2[C@@H](O)[C@@H](CO)O[C@@H](O[C@H]3[C@H](O)[C@@H](O)C(O)O[C@@H]3CO)[C@@H]2O)(C(=O)[O-])C[C@@H]1O.[Na+] (some centres unmarked) [amorphous, 3SL sodium reagent, reference compound]
Change in weight with lapse of time (in words) [2]: increase in weight
Weight of sample (weight at start of test = 100%) ([2]; elapsed time 0 hours): 100.0%
Weight of sample (weight at start of test = 100%) ([2]; elapsed time 0.5 hours): 123.1%
Weight of sample (weight at start of test = 100%) ([2]; elapsed time 2.5 hours): 130.5%
Weight of sample (weight at start of test = 100%) ([2]; elapsed time 8 hours): 130.4%
